According to ChEMBL document CHEMBL3804811 (J Med Chem, 2016):

Key:
[1] = Apparent permeability from apical to basolateral side in human Caco2 cells at 2.5 mg/ml after 2 hrs by reversed-phase HPLC method; format: ADME, cell-based; details: Caco-2
[2] = Intrinsic clearance in human liver microsomes at […] preincubated for 5 mins followed by NADPH addition measured after 5 to 30 mins by LC-MS/MS analysis; format: ADME; details: read-out: CLH
[3] = Cmax in Harlan nu/nu mouse at 10 mg/kg, iv administered as single dose by LC-MS/MS analysis; format: ADME, organism-based; set-up: dose 10 mg/kg, route intravenous; details: in vivo
[4] = Clearance in Harlan nu/nu mouse at 10 mg/kg, iv administered as single dose by LC-MS/MS analysis; format: ADME, organism-based; details: in vivo
[5] = Tmax in Harlan nu/nu mouse at 10 mg/kg, po administered as single dose by LC-MS/MS analysis; format: ADME, organism-based; details: in vivo
[6] = AUC (infinity) in Sprague-Dawley rat at 10 mg/kg, iv administered as single dose by LC-MS/MS analysis; format: ADME, organism-based; set-up: dose 10 mg/kg, time infinity, route intravenous; details: in vivo
[7] = Tmax in Sprague-Dawley rat at 10 mg/kg, po administered as single dose by LC-MS/MS analysis; format: ADME, organism-based; details: in vivo
[8] = Cmax in Beagle dog at 10 mg/kg, iv administered as single dose by LC-MS/MS analysis; format: ADME, organism-based, Canis lupus familiaris; set-up: dose 10 mg/kg, route intravenous; details: in vivo
[9] = Clearance in Beagle dog at 10 mg/kg, iv administered as single dose by LC-MS/MS analysis; format: ADME, organism-based, Canis lupus familiaris; details: in vivo
[10] = Half life in Beagle dog at 10 mg/kg, po administered as single dose by LC-MS/MS analysis; format: ADME, organism-based, Canis lupus familiaris; details: in vivo
NCI-H2228 = assay: Antiproliferative activity against human NCI-H2228 cells expressing ALK protein incubated for 72 hrs by cell titer-glo assay; details: NCI-H2228, 72 h
[11] = Antiproliferative activity against human MV411 cells incubated for 72 hrs by cell titer-glo assay; format: functional, cell-based; details: MV4-11, 72 h
[12] = Cytotoxicity against mouse IL-3 dependent BA/F3 cells incubated for 72 hrs by cell titer-glo assay; format: cell-based; details: BaF3, 72 h
[13] = molecular target: Tyrosine-protein kinase JAK2 (Homo sapiens, UniProt O60674); assay: Inhibition of JAK2 (unknown origin) in presence of gamma33-ATP
Chain of Tyrosine-protein kinase JAK2 (O60674 whole entry): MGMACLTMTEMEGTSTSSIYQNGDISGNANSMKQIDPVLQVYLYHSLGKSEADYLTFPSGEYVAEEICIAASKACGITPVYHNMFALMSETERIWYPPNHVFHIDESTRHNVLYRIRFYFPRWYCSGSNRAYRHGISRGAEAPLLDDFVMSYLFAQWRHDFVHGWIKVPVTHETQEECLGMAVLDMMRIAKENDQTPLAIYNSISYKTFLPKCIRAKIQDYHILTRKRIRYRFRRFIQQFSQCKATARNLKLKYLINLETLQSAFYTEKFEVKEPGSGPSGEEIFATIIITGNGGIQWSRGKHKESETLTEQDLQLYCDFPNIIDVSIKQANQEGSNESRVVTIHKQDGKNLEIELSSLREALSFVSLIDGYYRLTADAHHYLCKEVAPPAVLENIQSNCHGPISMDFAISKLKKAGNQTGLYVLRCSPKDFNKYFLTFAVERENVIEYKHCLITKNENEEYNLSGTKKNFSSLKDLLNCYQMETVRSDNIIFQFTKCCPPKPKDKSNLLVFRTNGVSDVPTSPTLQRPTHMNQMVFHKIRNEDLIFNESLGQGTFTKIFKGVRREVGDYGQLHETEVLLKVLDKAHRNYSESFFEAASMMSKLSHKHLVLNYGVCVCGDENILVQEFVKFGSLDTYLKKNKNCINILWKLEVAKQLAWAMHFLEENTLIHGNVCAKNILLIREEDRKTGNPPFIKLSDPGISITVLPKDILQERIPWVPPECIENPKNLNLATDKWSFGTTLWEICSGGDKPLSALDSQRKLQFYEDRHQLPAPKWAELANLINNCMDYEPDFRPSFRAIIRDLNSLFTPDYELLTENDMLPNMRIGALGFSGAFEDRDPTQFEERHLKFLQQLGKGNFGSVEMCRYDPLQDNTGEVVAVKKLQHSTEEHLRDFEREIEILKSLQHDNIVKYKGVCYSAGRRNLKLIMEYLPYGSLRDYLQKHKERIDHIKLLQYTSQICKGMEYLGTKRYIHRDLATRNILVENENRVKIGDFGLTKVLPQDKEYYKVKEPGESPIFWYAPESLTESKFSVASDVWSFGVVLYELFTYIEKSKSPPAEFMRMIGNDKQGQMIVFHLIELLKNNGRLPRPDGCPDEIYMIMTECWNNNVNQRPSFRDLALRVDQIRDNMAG

[14] = molecular target: Vascular endothelial growth factor receptor 2 (Homo sapiens, UniProt P35968); assay: Inhibition of VEGFR2 (unknown origin) in presence of gamma33-ATP
Chain of Vascular endothelial growth factor receptor 2 (P35968 whole entry): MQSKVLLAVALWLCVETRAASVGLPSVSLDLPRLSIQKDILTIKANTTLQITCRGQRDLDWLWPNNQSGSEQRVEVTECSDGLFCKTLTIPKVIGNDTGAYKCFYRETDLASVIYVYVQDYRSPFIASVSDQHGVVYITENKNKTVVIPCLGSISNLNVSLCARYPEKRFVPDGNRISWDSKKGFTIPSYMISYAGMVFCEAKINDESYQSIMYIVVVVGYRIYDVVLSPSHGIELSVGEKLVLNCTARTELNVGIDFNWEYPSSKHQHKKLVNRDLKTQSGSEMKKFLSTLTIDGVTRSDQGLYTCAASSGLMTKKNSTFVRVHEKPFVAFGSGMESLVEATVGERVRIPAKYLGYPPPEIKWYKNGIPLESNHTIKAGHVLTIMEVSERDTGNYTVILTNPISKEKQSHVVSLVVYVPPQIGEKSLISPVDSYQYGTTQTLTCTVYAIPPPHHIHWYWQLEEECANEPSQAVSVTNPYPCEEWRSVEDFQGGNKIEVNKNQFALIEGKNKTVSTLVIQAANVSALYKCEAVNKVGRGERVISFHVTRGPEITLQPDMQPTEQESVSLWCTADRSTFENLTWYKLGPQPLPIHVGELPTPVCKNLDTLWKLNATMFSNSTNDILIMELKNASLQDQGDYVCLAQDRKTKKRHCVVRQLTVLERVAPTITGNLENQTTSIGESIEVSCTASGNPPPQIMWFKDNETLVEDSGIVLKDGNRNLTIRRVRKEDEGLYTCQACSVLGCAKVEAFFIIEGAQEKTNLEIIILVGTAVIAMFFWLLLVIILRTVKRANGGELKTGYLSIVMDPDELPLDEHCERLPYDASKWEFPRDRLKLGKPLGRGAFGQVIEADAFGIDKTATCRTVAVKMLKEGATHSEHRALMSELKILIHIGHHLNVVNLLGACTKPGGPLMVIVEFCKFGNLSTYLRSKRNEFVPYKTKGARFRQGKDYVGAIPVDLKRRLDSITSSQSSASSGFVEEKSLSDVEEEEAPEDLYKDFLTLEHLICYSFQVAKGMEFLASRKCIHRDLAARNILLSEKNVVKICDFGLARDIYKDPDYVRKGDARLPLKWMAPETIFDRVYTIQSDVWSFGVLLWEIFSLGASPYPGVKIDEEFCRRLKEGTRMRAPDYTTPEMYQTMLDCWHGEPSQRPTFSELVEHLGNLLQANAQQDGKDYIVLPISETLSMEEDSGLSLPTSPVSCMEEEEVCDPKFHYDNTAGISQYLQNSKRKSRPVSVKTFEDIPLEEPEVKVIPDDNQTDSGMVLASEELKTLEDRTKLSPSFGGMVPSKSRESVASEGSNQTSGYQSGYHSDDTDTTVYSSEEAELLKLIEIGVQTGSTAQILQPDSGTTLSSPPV

[15] = molecular target: T1, Eukaryotic elongation factor 2 kinase (Homo sapiens, UniProt O00418); assay: Inhibition of EEF2K (unknown origin) in presence of gamma33-ATP
T1 sequence (O00418 whole entry): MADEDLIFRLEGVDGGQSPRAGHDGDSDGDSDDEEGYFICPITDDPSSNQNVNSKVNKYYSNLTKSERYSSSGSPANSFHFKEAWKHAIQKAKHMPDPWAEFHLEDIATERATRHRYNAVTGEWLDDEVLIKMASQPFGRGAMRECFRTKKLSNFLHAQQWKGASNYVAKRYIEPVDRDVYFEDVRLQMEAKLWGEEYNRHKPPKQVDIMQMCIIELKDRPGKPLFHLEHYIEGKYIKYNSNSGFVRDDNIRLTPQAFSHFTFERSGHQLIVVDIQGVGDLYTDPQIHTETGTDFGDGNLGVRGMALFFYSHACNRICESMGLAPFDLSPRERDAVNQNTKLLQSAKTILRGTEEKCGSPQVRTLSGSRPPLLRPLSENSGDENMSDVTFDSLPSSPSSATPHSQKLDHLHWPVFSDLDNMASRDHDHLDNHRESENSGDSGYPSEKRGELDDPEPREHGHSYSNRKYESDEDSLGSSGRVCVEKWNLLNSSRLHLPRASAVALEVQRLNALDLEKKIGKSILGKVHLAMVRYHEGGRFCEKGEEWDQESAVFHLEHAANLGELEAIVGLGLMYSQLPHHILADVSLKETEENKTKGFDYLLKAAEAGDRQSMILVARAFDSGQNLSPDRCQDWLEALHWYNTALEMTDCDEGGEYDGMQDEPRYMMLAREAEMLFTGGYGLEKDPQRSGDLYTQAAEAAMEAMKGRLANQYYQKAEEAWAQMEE

[16] = molecular target: Serine/threonine-protein kinase Nek6 (Homo sapiens, UniProt Q9HC98); assay: Inhibition of NEK6 (unknown origin) in presence of gamma33-ATP
Chain of Serine/threonine-protein kinase Nek6 (Q9HC98 whole entry): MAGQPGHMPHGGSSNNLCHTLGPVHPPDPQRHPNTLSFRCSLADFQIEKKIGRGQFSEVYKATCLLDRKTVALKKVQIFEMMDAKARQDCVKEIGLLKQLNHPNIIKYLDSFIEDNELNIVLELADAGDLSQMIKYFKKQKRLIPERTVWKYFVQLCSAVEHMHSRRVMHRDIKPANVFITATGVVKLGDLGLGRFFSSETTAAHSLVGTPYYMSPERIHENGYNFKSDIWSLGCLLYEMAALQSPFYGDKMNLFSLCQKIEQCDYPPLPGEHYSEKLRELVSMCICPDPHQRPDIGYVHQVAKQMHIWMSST

[17] = molecular target: T2, 3-phosphoinositide-dependent protein kinase 1 (Homo sapiens, UniProt O15530); assay: Inhibition of PDK1 (unknown origin) in presence of gamma33-ATP
T2 sequence (O15530 whole entry): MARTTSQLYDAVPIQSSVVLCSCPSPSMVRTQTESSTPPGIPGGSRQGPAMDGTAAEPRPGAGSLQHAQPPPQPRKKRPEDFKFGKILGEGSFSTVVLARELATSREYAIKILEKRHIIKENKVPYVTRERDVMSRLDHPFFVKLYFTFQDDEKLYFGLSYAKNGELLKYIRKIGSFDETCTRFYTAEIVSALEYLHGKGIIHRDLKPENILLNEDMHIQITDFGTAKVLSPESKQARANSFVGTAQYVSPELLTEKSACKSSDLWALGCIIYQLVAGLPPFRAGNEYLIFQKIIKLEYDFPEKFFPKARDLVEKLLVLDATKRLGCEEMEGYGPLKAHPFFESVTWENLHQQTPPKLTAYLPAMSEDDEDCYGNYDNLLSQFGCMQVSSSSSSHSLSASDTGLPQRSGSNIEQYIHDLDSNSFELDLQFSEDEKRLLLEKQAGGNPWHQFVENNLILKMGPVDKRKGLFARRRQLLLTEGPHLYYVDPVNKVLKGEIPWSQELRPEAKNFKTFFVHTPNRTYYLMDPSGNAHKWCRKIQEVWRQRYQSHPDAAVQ

[18] = Plasma concentration in Harlan nu/nu mouse at 240 mg/kg, po administered per day for 2 weeks measured 6 hrs post last dose by LC-MS/MS analysis; format: ADME, organism-based
[19] = Drug uptake in Harlan nu/nu mouse brain at 240 mg/kg, po administered per day for 2 weeks measured 6 hrs post last dose by LC-MS/MS analysis; format: ADME, organism-based; details: read-out: Drug uptake

Papp A→B at 2 h, 2.5 mg/ml [1]: 2.4 ×10⁻⁶ cm/s
CLint scaled [2]: 33 mL/min/kg
Cmax [3]: 4.9 µM
clearance [4]: 13.5 mL/min/kg
Tmax [5]: 2.5 h
AUC(0-inf) [6]: 15.1 µM·h
Tmax [7]: 3.08 h
Cmax [8]: 8.6 µM
clearance [9]: 17.5 mL/min/kg
half-life [10]: 15.2 h
IC50 (NCI-H2228): 68 nM
IC50 [13]: 40 nM
IC50 [14]: > 1000 nM
IC50 [15]: > 10000 nM
IC50 [16]: > 10000 nM
IC50 [17]: > 10000 nM
concentration at 6 h [18]: 4.57 µM
concentration at 6 h [19]: 1.94 µM
SMILES: CN1CCN(c2ccc(C(=O)Nc3n[nH]c4ccc(Cc5cc(F)cc(F)c5)cc34)c(NC3CCOCC3)c2)CC1 [ENTRECTINIB]
IC50 [11]: 81 nM
IC50 [12]: 2100 nM
